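Interpolation was linear, between the two tested concentrations surrounding the appropriate level; five concentrations were tested over 48 hours in 96-well plates. TGI: total growth inhibition.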
What was measured:
Assay in all cases: NCI tumour cell line growth inhibition, 48 h
A498 renal = test system: A498 renal
A549 NSCLC = test system: A549 NSCLC
CCRF-CEM leukemia = test system: CCRF-CEM leukemia
HCT-116 colon = test system: HCT-116 colon
HL-60(TB) leukemia = test system: HL-60(TB) leukemia
HOP-62 NSCLC = test system: HOP-62 NSCLC
HOP-92 NSCLC = test system: HOP-92 NSCLC
HT29 colon = test system: HT29 colon
IGROV1 ovarian = test system: IGROV1 ovarian
KM12 colon = test system: KM12 colon
KM20L2 colon = test system: KM20L2 colon
M14 melanoma = test system: M14 melanoma
M19-MEL melanoma = test system: M19-MEL melanoma
MOLT-4 leukemia = test system: MOLT-4 leukemia
NCI-H226 lung = test system: NCI-H226 lung
NCI-H23 lung = test system: NCI-H23 lung
NCI-H460 lung = test system: NCI-H460 lung
NCI-H522 lung = test system: NCI-H522 lung
OVCAR-5 ovarian = test system: OVCAR-5 ovarian
OVCAR-8 ovarian = test system: OVCAR-8 ovarian
RXF 393 renal = test system: RXF 393 renal
RXF-631 renal = test system: RXF-631 renal
SF-295 CNS = test system: SF-295 CNS
SK-MEL-28 melanoma = test system: SK-MEL-28 melanoma
SK-OV-3 ovarian = test system: SK-OV-3 ovarian
SNB-19 CNS = test system: SNB-19 CNS
SNB-78 CNS = test system: SNB-78 CNS
SR leukemia = test system: SR leukemia
TK-10 renal = test system: TK-10 renal
U251 CNS = test system: U251 CNS
UACC-257 melanoma = test system: UACC-257 melanoma
UACC-62 melanoma = test system: UACC-62 melanoma
UO-31 renal = test system: UO-31 renal
786-0 renal = test system: 786-0 renal
ACHN renal = test system: ACHN renal
CAKI-1 renal = test system: CAKI-1 renal
COLO 205 colon = test system: COLO 205 colon
DLD-1 colon = test system: DLD-1 colon
DMS 273 small cell lung = test system: DMS 273 small cell lung
EKVX NSCLC = test system: EKVX NSCLC
HCC-2998 colon = test system: HCC-2998 colon
HCT-15 colon = test system: HCT-15 colon
HOP-18 NSCLC = test system: HOP-18 NSCLC
K-562 leukemia = test system: K-562 leukemia
LOX IMVI melanoma = test system: LOX IMVI melanoma
LXFL 529 NSCLC = test system: LXFL 529 NSCLC
MALME-3M melanoma = test system: MALME-3M melanoma
OVCAR-3 ovarian = test system: OVCAR-3 ovarian
OVCAR-4 ovarian = test system: OVCAR-4 ovarian
RPMI-8226 leukemia = test system: RPMI-8226 leukemia
SF-268 CNS = test system: SF-268 CNS
SF-539 CNS = test system: SF-539 CNS
SK-MEL-2 melanoma = test system: SK-MEL-2 melanoma
SK-MEL-5 melanoma = test system: SK-MEL-5 melanoma
SN12C renal = test system: SN12C renal
SNB-75 CNS = test system: SNB-75 CNS
SW-620 colon = test system: SW-620 colon
XF 498 CNS = test system: XF 498 CNS

Measured: TGI

CCNC(CCCC(NCC)P(=O)(O)O)P(=O)(O)O (centres undefined)
> 100 µM: A498 renal | A549 NSCLC | CCRF-CEM leukemia | HCT-116 colon | HL-60(TB) leukemia | HOP-62 NSCLC | HOP-92 NSCLC | HT29 colon | IGROV1 ovarian | KM12 colon | KM20L2 colon | M14 melanoma | M19-MEL melanoma | MOLT-4 leukemia | NCI-H226 lung | NCI-H23 lung | NCI-H460 lung | NCI-H522 lung | OVCAR-5 ovarian | OVCAR-8 ovarian | RXF 393 renal | RXF-631 renal | SF-295 CNS | SK-MEL-28 melanoma | SK-OV-3 ovarian | SNB-19 CNS | SNB-78 CNS | SR leukemia | TK-10 renal | U251 CNS | UACC-257 melanoma | UACC-62 melanoma | UO-31 renal

CC(=O)Nc1ccc(OCC(O)CO)cc1 (centres undefined)
70.2 µM: 786-0 renal
> 100 µM: A498 renal | A549 NSCLC | ACHN renal | CAKI-1 renal | CCRF-CEM leukemia | COLO 205 colon | DMS 273 small cell lung | EKVX NSCLC | HCC-2998 colon | HCT-116 colon | HCT-15 colon | HOP-18 NSCLC | HOP-62 NSCLC | HOP-92 NSCLC | HT29 colon | IGROV1 ovarian | K-562 leukemia | KM12 colon | KM20L2 colon | LXFL 529 NSCLC | M14 melanoma | M19-MEL melanoma | MALME-3M melanoma | MOLT-4 leukemia | NCI-H226 lung | NCI-H23 lung | NCI-H460 lung | NCI-H522 lung | OVCAR-3 ovarian | OVCAR-4 ovarian | OVCAR-5 ovarian | OVCAR-8 ovarian | RXF 393 renal | SF-268 CNS | SF-295 CNS | SF-539 CNS | SK-MEL-2 melanoma | SK-MEL-28 melanoma | SK-MEL-5 melanoma | SK-OV-3 ovarian | SN12C renal | SNB-19 CNS | SNB-75 CNS | SNB-78 CNS | SR leukemia | TK-10 renal | U251 CNS | UACC-257 melanoma | UACC-62 melanoma | UO-31 renal | XF 498 CNS
73.1 µM: LOX IMVI melanoma
54.1 µM: DLD-1 colon
21.6 µM: SW-620 colon
43.9 µM: RPMI-8226 leukemia

— PubChem BioAssay (NCI)
